Measurements published in PubChem BioAssay (NCI).
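Dose response: 5 concentrations. Exposure: 48 h. Format: 96-well plates. Endpoint: linear interpolation; highest concentration if not reached. The concentration for 50% growth inhibition is given as GI50. TGI marks complete inhibition of growth.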

Legend:
Experiment in all cases: DTP human tumour cell line panel, 48 h
SR leukemia = test system: SR leukemia
SNB-75 CNS = test system: SNB-75 CNS
BT-549 breast = test system: BT-549 breast
NCI-H226 lung = test system: NCI-H226 lung
IGROV1 ovarian = test system: IGROV1 ovarian
ACHN renal = test system: ACHN renal
DU-145 prostate = test system: DU-145 prostate
HS 578T breast = test system: HS 578T breast
HOP-92 NSCLC = test system: HOP-92 NSCLC
HL-60(TB) leukemia = test system: HL-60(TB) leukemia

SMILES | GI50 (SR leukemia) [µM] | TGI (SR leukemia) [µM] | GI50 (SNB-75 CNS) [µM] | TGI (SNB-75 CNS) [µM] | GI50 (BT-549 breast) [µM] | TGI (BT-549 breast) [µM] | GI50 (NCI-H226 lung) [µM] | TGI (NCI-H226 lung) [µM] | GI50 (IGROV1 ovarian) [µM] | TGI (IGROV1 ovarian) [µM] | GI50 (ACHN renal) [µM] | TGI (ACHN renal) [µM] | GI50 (DU-145 prostate) [µM] | TGI (DU-145 prostate) [µM] | GI50 (HS 578T breast) [µM] | TGI (HS 578T breast) [µM] | GI50 (HOP-92 NSCLC) [µM] | TGI (HOP-92 NSCLC) [µM] | TGI (HL-60(TB) leukemia) [µM]
O=C(CCl)NCCNc1nccc(Nc2ccc(S(=O)(=O)Nc3ccccn3)cc2)n1 | 2.45 | 11.2 | 2.84 | 13.3 | 2.32 | 13.9 | 3.34 | 28.3 | 2.12 | 6.72 | 2.6 | 10.8 | 2.45 | 12.3 | 5.23 | > 100 | 3.46 | 9.09 | –
BrC(Br)=C1C(=C(Br)Br)C(Br)C1Br (configuration not stated) | – | 1.54 | – | 5.62 | – | 6.93 | – | 0.67 | – | 5.68 | – | 1.49 | – | 0.502 | – | 23.3 | – | 2.96 | –
CCN1CCC(Nc2ccnc3cc(Cl)ccc23)CC1 | 3.44 | 28.2 | 18.4 | 74.8 | – | – | 39.1 | > 100 | 11.7 | > 100 | 33.9 | > 100 | 36.5 | > 100 | 17.1 | 48.9 | 45.3 | > 100 | –
N.N.N.N.N.NC(=O)[O-].[Co+3].[I-] | – | – | 18.7 | > 100 | – | – | – | – | > 100 | > 100 | > 100 | > 100 | – | – | – | – | > 100 | > 100 | –
CO[C@@H]1C=C[C@@]23c4cc5c(cc4CN(C[C@@H]2O)[C@H]3C1)OCO5 | – | 77.6 | – | 50.6 | – | – | – | > 100 | – | > 100 | – | > 100 | – | – | – | – | – | 80.6 | 39.2
CN1CN(C2OC(CO)C(O)C2O)c2nc(N)[nH]c(=O)c21 (configuration not stated) | – | > 100 | – | > 100 | – | – | – | > 100 | – | > 100 | – | > 100 | – | – | – | – | – | > 100 | > 100
CC(=O)OC1CCC2(C)C(CCC3C2CC(=O)C2(C)C3CC(N3CC3)C2C(C)=O)C1 (configuration not stated) | – | 64.7 | – | 42.6 | – | 40.1 | – | 37.8 | – | 56.4 | – | 29.6 | – | > 100 | – | 40.9 | – | 43.1 | –
N#CC(C(=O)C(=O)Nc1ccccc1)c1ccccc1 (configuration not stated) | – | > 100 | – | > 100 | – | – | – | > 100 | – | > 100 | – | > 100 | – | – | – | – | – | > 100 | > 100
COC(OC)c1cc2c(cc1C=O)OCO2 | – | > 100 | – | 54.7 | – | – | – | > 100 | – | > 100 | – | > 100 | – | – | – | – | – | > 100 | > 100
NCCc1ccc(S(=O)(=O)F)cc1 | – | – | > 100 | > 100 | 27.9 | > 100 | – | – | 71.7 | > 100 | 45.9 | > 100 | 37 | > 100 | 82.8 | > 100 | 32.9 | 96.2 | –
O=c1c2ccc(S(=O)(=O)c3ccc4c(=O)n5c6ccccc6nc5c5cccc3c45)c3cccc(c32)c2nc3ccccc3n12 | – | – | – | – | – | 50.5 | – | > 100 | – | 18.2 | – | 30.2 | – | > 100 | – | – | – | – | –
